Data reported in ChEMBL document CHEMBL1201862, “PubChem BioAssay data set” (2004).
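48-hour exposure; five concentrations; linearly interpolated endpoints. GI50 marks 50% less growth.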 Activity calls are given as the source filed them. Rule as the data show it: active = GI50 up to about 1.1 µM and inactive = higher.

How the values were obtained:
Assay in all cases: NCI-60 cell line screen, 48 h
IGROV-1 = test system: IGROV-1
HOP-18 = test system: HOP-18
OVCAR-3 = test system: OVCAR-3
DMS-114 = test system: DMS-114
U-251 = test system: U-251
SR = test system: SR
M19-MEL = test system: M19-MEL
HOP-92 = test system: HOP-92
SF-268 = test system: SF-268
MDA-MB-435 = test system: MDA-MB-435
KM-20L2 = test system: KM-20L2
HCT-15 = test system: HCT-15
SW-620 = test system: SW-620
SF-295 = test system: SF-295
TK-10 = test system: TK-10
CCRF-CEM = test system: CCRF-CEM
HCC 2998 = test system: HCC 2998
RXF 393 = test system: RXF 393
KM12 = test system: KM12
LXFL 529 = test system: LXFL 529

`COc1ccc2[nH]c3c4c(ccc3c2c1)C(=O)C=CC4=O` was tested, and the GI50 (IGROV-1) was 16 µM (inactive), the GI50 (HOP-18) was 10.8 µM (inactive) and the GI50 (OVCAR-3) was 8.36 µM (inactive). For the same compound, the GI50 (DMS-114) was 11.8 µM (inactive), the GI50 (U-251) was 17.1 µM (inactive) and the GI50 (SR) was 0.333 µM (active). For the same compound, the GI50 (M19-MEL) was 14.3 µM (inactive), the GI50 (HOP-92) was 3.34 µM (inactive) and the GI50 (SF-268) was 17.1 µM (inactive). The GI50 (MDA-MB-435) was 25.9 µM (inactive), the GI50 (KM-20L2) was 18.9 µM (inactive) and the GI50 (HCT-15) was 4.42 µM. The GI50 (SW-620) was 2.39 µM (inactive), the GI50 (SF-295) was 24.7 µM (inactive) and the GI50 (TK-10) was 14.6 µM (inactive). For the same compound, the GI50 (CCRF-CEM) was 0.324 µM (active), the GI50 (HCC 2998) was 22.5 µM (inactive) and the GI50 (RXF 393) was 2.48 µM (inactive). The GI50 (KM12) was 21.6 µM (inactive) and the GI50 (LXFL 529) was 5.02 µM (inactive).
